{"source": "paper PMC6036970", "about": "“Natural and redesigned wasp venom peptides with selective antitumoral activity” (Beilstein Journal of Organic Chemistry, 2018)", "key": {"[1]": {"tested_on": "MCF-7 breast cancer cells", "assay": "MTT cytotoxicity assay on MCF-7 cancer cells", "type": "cell-based", "conditions": "for IC50 / IC50 against MCF-7: MCF-7, 24 h, read at 570 nm; for IC50 / LD50 / concentration achieving >50% of cancer cell lysis / IC50 against MCF-7: MTT, triplicate; for IC50: read-out: IC50 against MCF-7; for LD50 / concentration achieving >50% of cancer cell lysis: MCF-7, after 24 h; for inhibition of cell viability: 50 μmol L^−1 after 2 h; for inhibition of cancer cell growth: dose of ≈50 μmol L^−1; for effect on cell viability 2 h post-exposure: after 2 h", "description": "(§1) MCF-7 cells (ATCC) were maintained in RPMI 1640 medium supplemented with 10% heat inactivated FBS and 100 μg mL^−1 penicillin/10 μg mL^−1 streptomycin. One day before the assays, the cells were plated in 96-well microtiter plates with a density of 2.0 × 10^4 cells/well at 37 °C and 5% CO2. On the next day, cells were treated with peptides serial dilutions (0.09–50 μmol L^–1), incubated in individual microtiter plates for 2 and 24 h and MTT assays were performed after treatment. Human breast epithelial cells MCF-10A (ATCC) were maintained in a mixture of Dulbecco’s Modified Eagle’s Medium and Ham’s F12 nutrient mixture supplemented with 5% inactivated horse serum, 10 μg mL^−1 insulin, 0.02 μg mL^−1 human epidermal growth factor, 0.5 μg mL^−1 hydrocortisone, 0.10 μg mL^−1 choleric toxin, 100 U mL^−1 penicillin, and 100 μg mL^−1 streptomycin. The cells were preincubated for 24 h, plated in 96-well microtiter plates with a density of 2.0 × 10^4 cells/well at 37 °C and 5% CO2. On the next day, cells were treated with peptides serial dilutions (25 to 100 μmol L^−1), incubated in individual microtiter plates for 4 and 24 h and MTT assay was performed after treatment. Experiments were performed in triplicate.\n(§2) Briefly, MTT (Sigma-Aldrich) was dissolved in water and filtered to make up a […] solution. 30 μL of this solution were added to all the wells which already contained peptide-treated cells and kept at 37 °C for 45 minutes. Subsequently, the solution was discarded and replaced with 150 μL/well of DMSO and followed by gentle shaking for 15 minutes. Finally, the microplates were read on an ELISA reader at 570 nm. Experiments were performed in triplicate."}, "[2]": {"tested_on": "MCF-10A normal cells", "assay": "MTT cytotoxicity assay on MCF-10A normal cells", "type": "cell-based, human", "conditions": "for cytotoxicity against MCF-10A normal cells: up to higher concentrations (≈100 μmol L^−1)", "description": "as §1, §2"}, "[3]": {"tested_on": "MCF-7 cells", "assay": "AFM measurement of cell membrane roughness", "type": "cell-based", "conditions": "MCF-7, 50 μmol L^−1, 24 h, AFM contact mode, Ra and Rq", "description": "The AFM imaging of MCF-7 cells untreated (control) and treated with peptide (50 μmol L^−1 solutions of Dec-NH2 and [Leu]^8-Dec-NH2, which presented low activity when compared to other analogs and was used here as a treated control) was performed using an Agilent Technologies 5500 AFM/SPM microscope that was in contact mode and a Nanosensors™ PPP-CONT probe (NanoSensors; PPP-Cont-20, PointProbe-Plus Silicon-SPM-Sensor). The material properties and dimensions of the AFM tips used in this experiment were as follows: resonance frequency of 6–21 kHz, force constant of 0.02–0.77 N m^−1, cantilever length of 450 ± 10 μm, cantilever width of 50 ± 7.5 μm, cantilever thickness of 2 ± 1 μm, tip height of 10–15 μm and resistivity of 0.01–0.02 Ω cm. The assays were performed in triplicate; image processing and roughness determinations were performed with the aid of the Gwyddion software (http://gwyddion.net/download.php). In order to compare the cell surface, we used two roughness parameters, the mean roughness (Ra) and the mean square of Z data (Rq), where N is the difference between the highest and the lowest points in the analyzed area. […]\nThe root mean square of the Z values Rq is the standard deviation of the N values in the area analyzed and is given by Equation 2: […]"}, "[4]": {"tested_on": "human red blood cells", "conditions": "ref Torres et al. [9]–[10]; cited from earlier work", "from_the_text": "Table 1 Theoretical physicochemical properties and hemolytic activity of decoralin and its synthetic analogs.^a"}, "[5]": {"tested_on": "Gram-positive bacteria, Gram-negative bacteria, and fungi", "conditions": "ref Torres et al. [9]; cited from earlier work"}}, "note": "Where no end group is shown, it is not given here.", "data": [{"substance": "SLLSLIRLLIT-NH2 [[Leu]^8-Dec-NH2]", "values": [{"measurement": "IC50", "setting": "[1]", "result": "> 50", "unit": "µM"}, {"measurement": "activity against MCF-7 cells compared to the negative control", "setting": "[1]; MCF-7, MTT", "result": "did not present significant activity"}, {"measurement": "cytotoxicity towards normal MCF-10A cells", "setting": "[2]; lowest concentration tested (25 μmol L^−1)", "result": "cytotoxic"}, {"measurement": "change of membrane roughness", "setting": "[3]", "result": "did not significantly change membrane roughness"}, {"measurement": "MHC (maximal non-hemolytic concentration)", "setting": "[4]", "result": 50.00, "unit": "µmol/L"}, {"measurement": "antimicrobial activity (order of magnitude)", "setting": "[5]", "result": "~10^1 μmol L^−1"}]}, {"substance": "SLLSLIRKLIT-NH2 [Dec-NH2]", "values": [{"measurement": "IC50", "setting": "[1]", "result": 12.5, "unit": "µM"}, {"measurement": "LD50 / concentration achieving >50% of cancer cell lysis", "setting": "[1]", "result": 12.5, "unit": "µmol/L"}, {"measurement": "cytotoxicity against MCF-10A normal cells", "setting": "[2]", "result": "no significant cytotoxicity"}, {"measurement": "MHC (maximal non-hemolytic concentration)", "setting": "[4]", "result": 1.56, "unit": "µmol/L"}]}, {"substance": "SLLSLIRKLIW-NH2 [[Trp]^11-Dec-NH2]", "values": [{"measurement": "IC50", "setting": "[1]", "result": 25, "unit": "µM"}, {"measurement": "MHC (maximal non-hemolytic concentration)", "setting": "[4]", "result": 1.56, "unit": "µmol/L"}]}, {"substance": "SLLSLFRKLI-NH2 [[Phe]^6-Des[Thr]^11-Dec-NH2, synthetic analog of Dec-NH2]", "values": [{"measurement": "IC50 against MCF-7", "setting": "[1]", "result": 50.0, "unit": "µM"}, {"measurement": "inhibition of cell viability", "setting": "[1]; MCF-7, MTT", "result": "inhibited cell viability the most"}, {"measurement": "inhibition of cancer cell growth", "setting": "[1]; MCF-7, MTT", "result": "substantial inhibition"}, {"measurement": "MHC (maximal non-hemolytic concentration)", "setting": "[4]", "result": 12.50, "unit": "µmol/L"}]}, {"substance": "SLLSLIRKLLT-NH2 [[Leu]^10-Dec-NH2]", "values": [{"measurement": "IC50", "setting": "[1]", "result": 12.5, "unit": "µM"}, {"measurement": "LD50 / concentration achieving >50% of cancer cell lysis", "setting": "[1]", "result": 12.5, "unit": "µmol/L"}, {"measurement": "cytotoxicity against MCF-10A normal cells", "setting": "[2]", "result": "no significant cytotoxicity"}, {"measurement": "MHC (maximal non-hemolytic concentration)", "setting": "[4]", "result": 25.00, "unit": "µmol/L"}]}, {"substance": "RLLSLIRKLIT-NH2 [[Arg]^1-Dec-NH2, synthetic analog of Dec-NH2]", "values": [{"measurement": "IC50 against MCF-7", "setting": "[1]", "result": 50.0, "unit": "µM"}, {"measurement": "effect on cell viability 2 h post-exposure", "setting": "[1]; MCF-7, MTT", "result": "significant decreased cell viability"}, {"measurement": "inhibition of cancer cell growth", "setting": "[1]; MCF-7, MTT", "result": "substantial inhibition"}, {"measurement": "MHC (maximal non-hemolytic concentration)", "setting": "[4]", "result": 25.00, "unit": "µmol/L"}]}, {"substance": "SLLPLIRKLIT-NH2 [[Pro]^4-Dec-NH2]", "values": [{"measurement": "IC50", "setting": "[1]", "result": 25, "unit": "µM"}, {"measurement": "MHC (maximal non-hemolytic concentration)", "setting": "[4]", "result": 12.50, "unit": "µmol/L"}]}, {"substance": "SLLSLFRKLIT-NH2 [[Phe]^6-Dec-NH2]", "values": [{"measurement": "IC50", "setting": "[1]", "result": "> 50", "unit": "µM"}, {"measurement": "effect on cell viability 2 h post-exposure", "setting": "[1]; MCF-7, MTT", "result": "did not show significant inhibition"}, {"measurement": "MHC (maximal non-hemolytic concentration)", "setting": "[4]", "result": 3.12, "unit": "µmol/L"}]}, {"substance": "SFLSLIRKLIT-NH2 [[Phe]^2-Dec-NH2, synthetic analog of Dec-NH2]", "values": [{"measurement": "IC50 against MCF-7", "setting": "[1]", "result": 50.0, "unit": "µM"}, {"measurement": "inhibition of cell viability", "setting": "[1]; MCF-7, MTT", "result": "inhibited cell viability the most"}, {"measurement": "inhibition of cancer cell growth", "setting": "[1]; MCF-7, MTT", "result": "substantial inhibition"}, {"measurement": "MHC (maximal non-hemolytic concentration)", "setting": "[4]", "result": 3.12, "unit": "µmol/L"}]}]}
